The subject of data set [1] is human SMAD7 mRNA. Nature of the data set: Antisense inhibition of human SMAD7 mRNA expression in Hep3B cells by 3-10-3 cEt gapmers, 10,000 nM, electroporation (Example 2). In kind it is cell-based. The settings on record: approximately 24 hours. The procedure, abridged:
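Percent inhibition of SMAD7 mRNA, relative to untreated cells, after ~24 h exposure of electroporated Hep3B cells to 10,000 nM cEt gapmer; levels by qRT-PCR, corrected for total RNA.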

Data set [2] has as its system human SMAD7 mRNA. Nature of the data set: Dose-dependent inhibition of human SMAD7 mRNA expression in Hep3B cells (Example 3, Study 1 and 2). Type of data set: cell-based. The note with it: electroporation; for % inhibition of SMAD7 mRNA expression: approximately 16 hours; for IC50: Study 2 (740-20000 nM). The procedure, abridged: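 Hep3B cells, 20,000 per well, electroporated with antisense oligonucleotide at 0.31, 1.25, 5.00 or 20.00 μM (first series) or 0.74, 2.22, 6.67 or 20.00 μM (second series). After ~16 h, SMAD7 mRNA measured by RT-qPCR (RTS5062), normalised to RIBOGREEN total RNA. Percent inhibition vs untreated cells; IC50 derived.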

Where [3] appears, read: Hep3B cells, electroporation with 10,000 nM antisense oligonucleotide, primer probe set RTS5062, relative to untreated control cells.
[4] abbreviates: 740 nM, Study 2, relative to untreated control cells.
Where [5] appears, read: Hep3B cells, electroporation with 10,000 nM antisense oligonucleotide, SMAD7 mRNA by RT-PCR (RTS5062), relative to untreated control cells.
Where [6] appears, read: Hep3B cells, electroporation, 10,000 nM antisense oligonucleotide, RTS5062, relative to untreated control cells.

Values joined by “and” are separate entries in the source; they are usually repeats but may differ in a detail not shown here. Equal values may be shown once. Strand notation (5' to 3'): a small letter for the sugar, then the base; units joined by * are phosphorothioate-linked, units joined directly phosphodiester-linked; [ ] holds rarer units or linkages, { } end groups; capitals alone tell only the bases. k = constrained ethyl (cEt); [5mC] = 5-methylcytosine; d = 2'-deoxy (DNA)

A word on the IC50: it is the concentration that inhibits the measured activity by half. As a reminder, the % Inhibition is the percentage by which the read-out fell short of the control. A lower % Inhibition goes with a weak effect.

Turning to “799366 (antisense kT*k[5mC]*kT*d[5mC]*d[5mC]*dG*dA*dG*dT*dT*dA*dT*d[5mC]*k[5mC]*k[5mC]*k[5mC]) [compound 799366]”, the “% inhibition of SMAD7 mRNA expression” value in data set [1] (setting [3]) was 70%; in data set [2] (setting [4]), 18%; in data set [2] (2220 nM, Study 2) it was 39%; in data set [2] (6670.0 nM, Study 2) it was 64%; in data set [2] (20000.0 nM, Study 2), 76%. The same substance came in with a 50% inhibitory concentration (IC50) in data set [2] of 8 µM.

Turning to “799369 (antisense kA*k[5mC]*kT*d[5mC]*dA*d[5mC]*dT*dA*dA*dG*dT*d[5mC]*dT*k[5mC]*k[5mC]*kG) [compound 799369]”, in data set [1] (setting [5]), the “% Inhibition” value worked out at 50%. Moreover, the “% inhibition of SMAD7 mRNA expression” value in data set [2] (setting [4]) worked out at 1%; in data set [2] (2220 nM, Study 2), 10%; in data set [2] (6670.0 nM, Study 2), 46%; in data set [2] (20000.0 nM, Study 2), 74%. In addition, in data set [2], the IC50 is 6 µM.

As for “799382 (antisense kA*k[5mC]*kT*dT*dT*dT*dA*dG*d[5mC]*dA*dA*dA*d[5mC]*kA*kG*kA) [compound 799382]”, the “% inhibition of SMAD7 mRNA expression” value in data set [1] (setting [3]) amounted to 82%; in data set [2] (setting [4]), 0%; in data set [2] (2220 nM, Study 2), 36%; in data set [2] (6670.0 nM, Study 2), 56%; in data set [2] (20000.0 nM, Study 2) it was 75%. In data set [2], the midpoint of inhibition, the IC50, lay at 3 µM.

As for “799396 (antisense kT*kG*kT*dT*dA*d[5mC]*dA*dA*dA*dT*dA*d[5mC]*dA*kG*kA*kG) [compound 799396]”, the “% Inhibition” value was determined as 69% in data set [1] (setting [5]) and 66% in data set [1] (SMAD7 mRNA, Hep3B cells, 10,000 nM antisense oligonucleotide, electroporation, primer probe set RTS5062, relative to untreated control cells). The “% inhibition of SMAD7 mRNA expression” value in data set [2] (2220 nM, Study 2) is 52% and 38%; in data set [2] (6670.0 nM, Study 2), 72% and 70%; in data set [2] (20000.0 nM, Study 2) it was 78% and 85%.

On to “799402 (antisense kG*kG*kT*d[5mC]*dA*d[5mC]*dT*dG*dT*dT*d[5mC]*dT*d[5mC]*kT*k[5mC]*kT) [compound 799402]”, for which the “% inhibition of SMAD7 mRNA expression” value in data set [1] (setting [3]) worked out at 66%; in data set [2] (setting [4]), 0%; in data set [2] (2220 nM, Study 2), 3%; in data set [2] (6670.0 nM, Study 2), 13%; in data set [2] (20000.0 nM, Study 2), 50%. In data set [2], this substance yielded an IC50 of 10 µM.

Consider “799404 (antisense kG*kG*kA*dA*d[5mC]*dA*dT*dT*dT*dA*d[5mC]*d[5mC]*d[5mC]*k[5mC]*kT*kG) [compound 799404]”, for which the “% inhibition of SMAD7 mRNA expression” value worked out at 68% in data set [1] (setting [3]); 15% in data set [2] (setting [4]); 39% in data set [2] (2220 nM, Study 2); 42% in data set [2] (6670.0 nM, Study 2); 59% in data set [2] (20000.0 nM, Study 2). In data set [2], this substance gave an IC50 of 2 µM.

In the case of “799406 (antisense kG*kG*kG*dA*dA*d[5mC]*dA*dT*dG*dG*d[5mC]*d[5mC]*dT*kT*kT*k[5mC]) [compound 799406]”, the “% inhibition of SMAD7 mRNA expression” value in data set [1] (setting [3]) amounted to 65%; in data set [2] (setting [4]), 30%; in data set [2] (2220 nM, Study 2) it was 51%; in data set [2] (6670.0 nM, Study 2), 77%; in data set [2] (20000.0 nM, Study 2), 84%. The substance also returned an IC50 in data set [2] of 3 µM.

“799410 (antisense kT*k[5mC]*kT*dG*dT*dT*dT*dA*d[5mC]*dA*d[5mC]*dA*d[5mC]*kA*kT*kT) [compound 799410]”: the “% Inhibition” value in data set [1] (setting [5]) is recorded as 79%. The “% inhibition of SMAD7 mRNA expression” value in data set [2] (setting [4]) is 26%; in data set [2] (2220 nM, Study 2) it was 42%; in data set [2] (6670.0 nM, Study 2), 64%; in data set [2] (20000.0 nM, Study 2) it was 74%. In data set [2], this substance displayed an IC50 of 2 µM.

Take “799412 (antisense kT*kT*k[5mC]*dT*dT*dA*d[5mC]*dA*d[5mC]*dA*dG*d[5mC]*dA*kG*k[5mC]*kG) [compound 799412]”: the “% Inhibition” value in data set [1] (setting [5]) is 60%. The “% inhibition of SMAD7 mRNA expression” value in data set [2] (setting [4]) was 35%; in data set [2] (2220 nM, Study 2), 51%; in data set [2] (6670.0 nM, Study 2) it was 67%; in data set [2] (20000.0 nM, Study 2) it was 65%. In data set [2], this substance showed an IC50 of 4 µM.

As to “799429 (antisense k[5mC]*kA*k[5mC]*dA*dA*dG*dT*d[5mC]*dA*d[5mC]*dA*dA*d[5mC]*kT*kG*kG) [compound 799429]”, the “% Inhibition” value in data set [1] (setting [5]) was 74%. In addition, the “% inhibition of SMAD7 mRNA expression” value in data set [2] (setting [4]) is reported as 24%; in data set [2] (2220 nM, Study 2) it was 50%; in data set [2] (6670.0 nM, Study 2), 60%; in data set [2] (20000.0 nM, Study 2), 63%. Also, 7 µM corresponded to half-maximal inhibition in data set [2] (IC50).

Regarding “799467 (antisense kG*k[5mC]*kA*dG*dA*d[5mC]*dA*dG*dA*dA*dG*d[5mC]*dT*k[5mC]*kT*kA) [compound 799467]”, the “% Inhibition” value in data set [1] (setting [5]) is given as 69%. Further, the “% inhibition of SMAD7 mRNA expression” value in data set [2] (setting [4]) stood at 4%; in data set [2] (2220 nM, Study 2), 27%; in data set [2] (6670.0 nM, Study 2), 65%; in data set [2] (20000.0 nM, Study 2), 57%. For the same substance, the IC50 in data set [2] was > 20 µM.

For the substance “799471 (antisense k[5mC]*kA*k[5mC]*dA*dG*dA*dA*dA*dA*dG*d[5mC]*dT*d[5mC]*k[5mC]*kG*k[5mC]) [compound 799471]”, the “% Inhibition” value in data set [1] (setting [5]) was found to be 71%. The “% inhibition of SMAD7 mRNA expression” value in data set [2] (setting [4]) was determined as 0%; in data set [2] (2220 nM, Study 2), 9%; in data set [2] (6670.0 nM, Study 2) it was 14%; in data set [2] (20000.0 nM, Study 2), 46%. In addition, the IC50 in data set [2] is 5 µM.

With “799486 (antisense k[5mC]*kA*kT*dA*dA*dT*dG*dA*d[5mC]*dT*dT*dA*dT*k[5mC]*k[5mC]*kA) [compound 799486]”, the “% Inhibition” value in data set [1] (setting [5]) is 52%. In addition, the “% inhibition of SMAD7 mRNA expression” value is listed as 20% in data set [2] (setting [4]); 17% in data set [2] (2220 nM, Study 2); 57% in data set [2] (6670.0 nM, Study 2); 88% in data set [2] (20000.0 nM, Study 2). This substance also yielded an IC50 in data set [2] of 11 µM.

As for “799496 (antisense kG*kG*kG*dT*dG*dA*dG*dG*dT*dG*dG*d[5mC]*dT*kG*k[5mC]*kG) [compound 799496]”, the “% inhibition of SMAD7 mRNA expression” value in data set [1] (setting [3]) turned out to be 72%; in data set [2] (setting [4]), 3%; in data set [2] (2220 nM, Study 2), 12%; in data set [2] (6670.0 nM, Study 2), 34%; in data set [2] (20000.0 nM, Study 2) it was 69%. This substance showed an IC50 in data set [2] of 3 µM.

With “799509 (antisense kA*kG*kA*dA*dA*d[5mC]*dA*dG*dT*d[5mC]*dT*d[5mC]*d[5mC]*kA*k[5mC]*kA) [compound 799509]”, the “% Inhibition” value in data set [1] (setting [5]) is 57%. Also, the “% inhibition of SMAD7 mRNA expression” value in data set [2] (setting [4]) turned out to be 21%; in data set [2] (2220 nM, Study 2), 54%; in data set [2] (6670.0 nM, Study 2) it was 69%; in data set [2] (20000.0 nM, Study 2), 87%. For the same substance, the IC50 in data set [2] amounted to 12 µM.

As for “799511 (antisense kT*kA*kA*dT*dG*dA*d[5mC]*dA*dA*dT*dT*d[5mC]*d[5mC]*kA*kG*k[5mC]) [compound 799511]”, the “% Inhibition” value in data set [1] (setting [5]) is on record as 65%. In addition, the “% inhibition of SMAD7 mRNA expression” value in data set [2] (setting [4]) was determined as 0%; in data set [2] (2220 nM, Study 2), 0%; in data set [2] (6670.0 nM, Study 2), 35%; in data set [2] (20000.0 nM, Study 2), 65%. In addition, it took 3 µM to reach half-maximal inhibition in data set [2] (IC50).

Turning to “799534 (kG*kA*kG*dA*dA*dT*dG*dA*dA*dG*dT*d[5mC]*d[5mC]*kA*kG*kA; antisense) [compound 799534]”, the “% inhibition of SMAD7 mRNA expression” value in data set [1] (setting [6]) worked out at 68%; in data set [2] (setting [4]), 16%; in data set [2] (2220 nM, Study 2) it was 60%; in data set [2] (6670.0 nM, Study 2) it was 51%; in data set [2] (20000.0 nM, Study 2), 86%. In data set [2], this substance came in with an IC50 of 1 µM.

For the substance “799540 (kA*kG*k[5mC]*dT*dG*dA*dA*dG*d[5mC]*d[5mC]*d[5mC]*d[5mC]*d[5mC]*k[5mC]*kA*kA; antisense) [compound 799540]”, the “% inhibition of SMAD7 mRNA expression” value in data set [1] (setting [6]) was found to be 76%; in data set [2] (setting [4]), 41%; in data set [2] (2220 nM, Study 2) it was 60%; in data set [2] (6670.0 nM, Study 2) it was 63%; in data set [2] (20000.0 nM, Study 2) it was 73%. Moreover, the concentration for half-maximal inhibition (IC50) in data set [2] turned out to be 5 µM.

For the substance “799543 (kT*k[5mC]*kA*dA*dA*dT*dG*d[5mC]*dA*dT*dG*dA*dG*kT*kT*kA; antisense) [compound 799543]”, the “% inhibition of SMAD7 mRNA expression” value amounted to 65% in data set [1] (setting [6]); 13% in data set [2] (setting [4]); 26% in data set [2] (2220 nM, Study 2); 61% in data set [2] (6670.0 nM, Study 2); 75% in data set [2] (20000.0 nM, Study 2). The substance also registered an IC50 in data set [2] of 5 µM.

For the origin of these results see patent publication US10517889B2, “Modulators of SMAD7 expression” (Ionis Pharmaceuticals, Inc., priority 2017, dated 2019).
